In PMC8704709, “Improved Anticancer Activities of a New Pentafluorothio-Substituted Vorinostat-Type Histone Deacetylase Inhibitor” (Pharmaceuticals, 2021):

Assays:
DU145 cells = test: Cytosolic ROS formation (CellROX Orange fluorescence microscopy); assay type: cell-based, human; conditions: 6–24 h
Experimental: (§1) Untreated cells incubated with 1.6 mM H2O2 for 30 min served as positive controls. CellROX® Orange reagent (1 µM) was applied, when adding the test compounds. Formation of ROS was measured after 3 h, 6 h, 12 h (not shown) and 24 h using ZOE™ Fluorescent Cell Imager (Biorad, Munich, Germany). n = 3 independent experiments performed in triplicate for each condition.

Hep-G2 cells = test: as above; assay type: cell-based, human; conditions: 6–24 h
Experimental: as §1

human recombinant HDAC1 = target: T1, human recombinant HDAC1 (Homo sapiens, UniProt Q13547); test: Fluorogenic subtype-specific HDAC assay; assay type: biochemical; conditions: cell-free enzymatic assay, 1–10 µM
T1 construct: purchased BPS Biosciences, San Diego, CA, USA
T1 sequence (Q13547 whole entry): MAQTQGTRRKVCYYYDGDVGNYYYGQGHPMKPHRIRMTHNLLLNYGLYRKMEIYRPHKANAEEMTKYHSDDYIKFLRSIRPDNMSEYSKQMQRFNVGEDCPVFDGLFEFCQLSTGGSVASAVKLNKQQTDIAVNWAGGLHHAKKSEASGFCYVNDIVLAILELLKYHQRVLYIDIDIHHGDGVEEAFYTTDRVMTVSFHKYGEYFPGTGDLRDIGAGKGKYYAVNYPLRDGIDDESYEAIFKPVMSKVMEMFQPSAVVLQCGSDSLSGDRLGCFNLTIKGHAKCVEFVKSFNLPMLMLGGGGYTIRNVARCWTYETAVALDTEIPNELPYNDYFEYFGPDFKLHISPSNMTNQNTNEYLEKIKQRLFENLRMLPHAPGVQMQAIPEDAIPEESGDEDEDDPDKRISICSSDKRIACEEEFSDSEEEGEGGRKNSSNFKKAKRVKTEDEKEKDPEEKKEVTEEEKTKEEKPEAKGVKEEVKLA

human recombinant HDAC6 = target: T2, human recombinant HDAC6 (Homo sapiens, UniProt Q9UBN7); test: Fluorogenic subtype-specific HDAC assay; assay type: biochemical; conditions: cell-free enzymatic assay, 1–10 µM
T2 construct: purchased BPS Biosciences, San Diego, CA, USA
T2 sequence (Q9UBN7 1-1215): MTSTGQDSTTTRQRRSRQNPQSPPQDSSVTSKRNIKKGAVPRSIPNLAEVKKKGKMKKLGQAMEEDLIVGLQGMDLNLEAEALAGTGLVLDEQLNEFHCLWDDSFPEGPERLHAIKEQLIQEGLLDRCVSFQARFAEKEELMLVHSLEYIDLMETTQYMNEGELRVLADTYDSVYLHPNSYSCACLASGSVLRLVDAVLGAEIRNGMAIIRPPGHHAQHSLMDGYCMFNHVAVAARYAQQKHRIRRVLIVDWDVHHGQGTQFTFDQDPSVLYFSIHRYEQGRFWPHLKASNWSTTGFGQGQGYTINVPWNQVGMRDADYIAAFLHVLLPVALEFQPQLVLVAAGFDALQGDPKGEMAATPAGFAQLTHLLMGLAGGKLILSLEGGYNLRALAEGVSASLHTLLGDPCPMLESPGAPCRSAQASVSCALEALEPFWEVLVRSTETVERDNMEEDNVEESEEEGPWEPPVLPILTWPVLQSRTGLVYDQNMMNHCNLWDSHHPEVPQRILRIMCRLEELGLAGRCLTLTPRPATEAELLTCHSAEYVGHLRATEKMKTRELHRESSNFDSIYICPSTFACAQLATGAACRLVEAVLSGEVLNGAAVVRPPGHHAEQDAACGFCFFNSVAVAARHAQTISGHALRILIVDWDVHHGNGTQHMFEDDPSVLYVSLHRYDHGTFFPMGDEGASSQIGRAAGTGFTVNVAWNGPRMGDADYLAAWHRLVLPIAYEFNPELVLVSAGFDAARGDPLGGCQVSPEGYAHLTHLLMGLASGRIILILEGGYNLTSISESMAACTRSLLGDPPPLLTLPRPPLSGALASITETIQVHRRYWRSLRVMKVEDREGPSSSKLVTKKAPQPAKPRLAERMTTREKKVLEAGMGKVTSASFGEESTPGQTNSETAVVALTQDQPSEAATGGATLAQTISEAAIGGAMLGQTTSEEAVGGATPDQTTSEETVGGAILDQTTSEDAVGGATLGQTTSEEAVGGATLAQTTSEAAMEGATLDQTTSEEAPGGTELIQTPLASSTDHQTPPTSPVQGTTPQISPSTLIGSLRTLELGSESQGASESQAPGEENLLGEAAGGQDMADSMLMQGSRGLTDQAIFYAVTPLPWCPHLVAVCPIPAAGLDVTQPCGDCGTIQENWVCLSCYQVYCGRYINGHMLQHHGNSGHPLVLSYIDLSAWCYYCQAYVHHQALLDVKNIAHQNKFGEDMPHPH

[1] = tested on: T-cell leukemia/lymphoma cells (Jurkat, Hut78, SMZ1, SupT11); test: Western blot in T-cell leukemia/lymphoma cells (acetyl-H3, acetyl-α-tubulin); assay type: cell-based, human; conditions: 24 h
Experimental: Western blots were performed as described earlier. Cells were seeded in 100 mm petri dishes, grown to almost confluency, treated for 24 h, washed and frozen, followed by lysis with RIPA Buffer, added with one cOmplete™ Mini protease Inhibitor tablet/10 mL (Roche), and quantification with Pierce^TM BCA Protein Assay Kit (Thermo Fisher Scientific). Thereafter protein levels were normalized to untreated controls so equal protein loading of 20 µg/lane. Laemmli Buffer and β-mercaptoethanol were added before probes were desaturated at 96 °C for 10 min. First, 7.5% or 12% SDS gels (Biorad, Munich, Germany) were loaded with proteins and electrophoresis was done. Thereafter, proteins were transferred to activated polyvinylidene difluoride membranes (PVDF) by electroblotting. Finally, the membranes were blocked with 1% BSA and incubated with primary antibodies over night at 4 °C. […] Only the Jurkat cells had already a high level of α-tubulin in untreated cells and, thus, drug-induced changes were not detectable in these cells.
Blots were washed three times with 1% TBS-Tween and incubated with anti-mouse or anti-rabbit peroxidase-coupled anti-IgG secondary antibodies (1:5000–1:10,000) at room temperature for 60 min. […]

[2] = tested on: DU145 prostate tumor cells; test: Scratch assay (migration); assay type: cell-based, human; conditions: 5 µM and 10 µM, 24 h
Experimental: To investigate the anti-migratory effects of SF5-SAHA scratch assays were performed as described. In brief, cells were grown to sub-confluency in 6-well plates. The cell monolayer was then scratched using a pipet tip. Cells at the edge of this artificial gap migrate into the cell-free area to close the gap in a time-dependent manner. DU145 cells were seeded at a density 1.5 × 10^5 cells/well and treated with SF5-SAHA (0–10 µM) for 24 h and bright-field images were taken before and after 12 h and 24 h of treatment using a an EVOS M5000 microscope (Thermo Fischer Scientific, Waltham MA, USA). The experiments were performed n = 3.

[3] = tested on: chorioallantoic membrane (CAM) of fertilized chicken eggs; test: CAM assay (angiogenesis in fertilized chicken eggs); assay type: in vivo
Experimental: Anti-angiogenesis activity of SF5-SAHA was tested on the CAM (chorioallantoic membrane) of fertilized chicken eggs. The embryonic development was started by placing the eggs in a humidified (>60%) incubator in an upright position at a temperature of 37.8 °C. After 3 days, a hole of 2 mm was pierced in the eggshell top side in order to detach the developing CAM from the eggshell and let it sink into the allantoic cavity. After 10 days, the eggshell hole was broadened, and a silicone ring (1 cm Ø) was placed on the CAM, which was allowed to attach for 6 h. Then, 20 µL of SF5-SAHA containing medium or PBS (control) was added into the ring. The angiogenic states of the CAM were documented using a stereomicroscope equipped with a Kappa digital camera system (Distelkamp-Electronic, Kaiserslautern, Germany). Pictures were taken every 24 h until the finish of the experiment after 72 h. The CAM experiments were carried out with n = 3 eggs for each condition.

O=C(CCCCCCC(=O)Nc1ccc(S(F)(F)(F)(F)F)cc1)NO [SF5-SAHA]
cytosolic ROS formation (DU145 cells): pronounced time- and dose-dependent increase in cytosolic ROS
cytosolic ROS formation (Hep-G2 cells): pronounced time- and dose-dependent increase in cytosolic ROS
HDAC1 inhibition (comparison) (human recombinant HDAC1): comparable activities against HDAC1
HDAC6 inhibition (comparison) (human recombinant HDAC6): distinctly stronger HDAC6 inhibition than SAHA
acetyl-α-tubulin level [1]: increased in a dose-dependent way in three out of four tested cell lines
acetylated histone H3 level [1]: Dose-dependent increases in acetylated H3 were observed in all tested leukemia/lymphoma cancer cell lines
migratory activity (scratch assay) [2]: reduced migratory activity
toxicity to chicken embryos ([3]; doses of 5 and 10 µM): no toxicity
antiangiogenic effect on CAM ([3]; topical application, 5 or 10 µM, 72 h): reduced vessel diameters and reduced numbers of vessel branches
